{
  "source": "paper PMC9886266",
  "about": "“New [1,2,4]triazolo[4,3-c]quinazolines as intercalative Topo II inhibitors: Design, synthesis, biological evaluation, and in silico studies” (PLOS ONE, 2023)",
  "assay_type_in_all_cases": "cell-based, human",
  "key": {"HCT-116 cells": {"system": "HCT-116 cells", "assay": "Flow cytometry apoptosis analysis (Annexin V and PI double staining)", "conditions": "HCT-116, 2.44 μM, 48 h", "experimental": "The Annexin V and PI double staining experiment was used to further investigate the apoptotic effect of compound 16 in HCT-116 cells. In this process, HCT-116 cells were treated with compound 16 at a concentration of 2.44 μM and incubated for 48 h. The apoptotic effect of compound 16 on HCT-116 cells was about nine times greater than that of untreated HCT-116 cells. In comparison to control cells (5.62%), compound 16 caused 48.82% programmed cell death (early apoptosis = 46.77% & late apoptosis = 2.05%) (Table 3 and Fig 4B).\nFlow cytometry cell apoptosis analysis was used to investigate the apoptotic effect of compound 16 as follows.\n[…] cells were treated with compound 16 (2.44 μM) for 48 h, collected by trypsin, centrifuged, washed two successive times with PBS, suspended in 500 μl binding buffer, and double stained with 5 μl Annexin V-FITC and 5 μl PI in the dark at room temperature for 15 min. The stained cells were measured using Epics XL-MCL™ Flow Cytometer and analyzed using Flowing software. […]\n(§1) S2.6. Flow cytometry analysis for apoptosis\nFlow cytometry cell apoptosis analysis was used to investigate the apoptotic effect of the synthesized compounds. […] cells were treated with compound 16 (2.44 µM) for 48 h, collected by trypsin, centrifuged, washed two successive times with PBS, suspended in 500 μl binding buffer, and double stained with 5 μl Annexin V-FITC and 5 μl PI in the dark at room temperature for 15 min. The stained cells were measured using Epics XL-MCL™ Flow Cytometer and analyzed using Flowing software."}, "BAX": {"system": "BAX", "assay": "Western blot, BAX level", "conditions": "HCT-116, 2.44 μM, 48 h; control = 1.00", "experimental": "(§2) In comparison to the control, compound 16 elevated the level of the proapoptotic protein (BAX) by 2.18 times. […] Furthermore, compound 16 enhanced the BAX/Bcl-2 ratio by 4.38-fold in comparison to control cells.\n(§3) The effects of compound 16 on the expression of BAX, and Bcl‐2 were determined using Western blot analysis [62–64]as described in Electronic Supplementary Material S2.7 in S1 Appendix. […]\n(§4) for 48 h. Then, the cells were fixed in 70% ethanol at 4 °C for 12 h. After that, the cells were washed with cold PBS, incubated with 100 μl RNase A at 37 °C for 30 min, and stained with 400 μl PI in the dark at room temperature for further 30 min. The stained cells were measured using Epics XL-MCL™ Flow Cytometer (Beckman Coulter), and the data were analyzed using Flowing software (version 2.5.1, Turku Centre for Biotechnology, Turku, Finland).\nas §1\n(§5) Flow cytometry cell apoptosis analysis was used to investigate the apoptotic effect of the synthesized compounds. […] The stained cells were measured using Epics XL-MCL™ Flow Cytometer and analyzed using Flowing software. […]\n(§6) The proteins expression of BAX, and Bcl‐2 were determined using Western blot analysis. […] Total protein concentrations in the supernatant were determined colorimetrically using the Pierce 660 nm Protein Assay method (Thermo Fisher Scientific, Rockford, IL), with BSA as the standard. […]"}, "Bcl-2": {"system": "Bcl-2", "assay": "Western blot, Bcl-2 level", "conditions": "HCT-116, 2.44 μM, 48 h", "experimental": "as §2, §3, §4, §1, §5, §6"}, "BAX/Bcl-2 ratio": {"system": "BAX/Bcl-2 ratio", "assay": "Western blot, BAX/Bcl-2 ratio", "conditions": "HCT-116, 2.44 μM, 48 h; control = 1.00", "experimental": "as §2, §3, §4, §1, §5, §6"}},
  "data": [
    {"compound": "CCCNc1nc2ccccc2c2nnc(C(F)(F)F)n12", "note": "[Compound 16, N-Propyl-3-(trifluoromethyl)-[1,2,4]triazolo[4,3-c]quinazolin-5-amine]", "values": [
      {"measurement": "Apoptosis Early (Right Bottom)", "setting": "HCT-116 cells; mean ± SEM", "value": "46.77 ± 0.83", "unit": "%"},
      {"measurement": "Apoptosis Late (Right Top)", "setting": "HCT-116 cells; mean ± SEM", "value": "2.05 ± 0.92", "unit": "%"},
      {"measurement": "Necrosis (Left Top)", "setting": "HCT-116 cells; mean ± SEM", "value": "0.90 ± 0.36"},
      {"measurement": "Viable (Left Bottom)", "setting": "HCT-116 cells; mean ± SEM", "value": "50.28 ± 2.10"},
      {"measurement": "Programmed cell death (early + late apoptosis)", "setting": "HCT-116 cells; control cells 5.62%", "value": 48.82, "unit": "%"},
      {"measurement": "Protein expression (normalized to β-actin) BAX", "setting": "BAX", "value": "2.18 ± 0.12"},
      {"measurement": "Reduction of Bcl-2 level compared to control", "setting": "Bcl-2", "value": 1.9, "unit": "fold"},
      {"measurement": "Protein expression (normalized to β-actin) Bcl-2", "setting": "Bcl-2; control = 1.00", "value": "0.52 ± 0.08"},
      {"measurement": "Protein expression (normalized to β-actin) BAX/Bcl-2 ratio", "setting": "BAX/Bcl-2 ratio", "value": "4.38 ± 0.86"}
    ]}
  ]
}
